Experimental data as given in patent publication US20120183489A1, “COMPOSITIONS COMPRISING METALLATED MALODOR CONTROL POLYMERS” (priority 2011, published 2012).

Legend:
[1] = system: microbes of soiled sponge samples; test: Odor prevention through microbe reduction, SOLARIS colorimetric detection on soiled sponge; type: cell-based; settings: soiled sponge treated 15 min, dried 12 h; incubated 120 hrs at 37° C.; Control 2.35 hrs
Experimental: The Control formulation containing no malodor control polymer or zinc salt, and Formulations containing individual polymers, zinc salts, and zinc-polymer complexes are compared for their effect on odor prevention, through microbe reduction.
Soiled sponge samples were cut into 1×6 cm strips and treated with the solutions (Table 5) for 15 minutes and dried at ambient temperature for 12 hours. The treated 1 cm strips were then cut into 1×1 cm pieces, placed into SOLARIS scintillation vials, and 1 ml of MOPS buffer was added. The open vials were placed into outer SOLARIS vials containing thymolphthalein blue pH indicator and the vials were finally capped. The sealed vials were placed into a SOLARIS machine and incubated for 120 hrs at 37° C. Colorimetric measurements were conducted according to SOLARIS VIV protocol and the detection times of acidic respiratory byproducts were record (Table 5).

[2] = Malodor control performance, headspace SPME GC/MS, butylamine; settings: 5 ml test solution spiked with 5 microliters; 2 h room temperature, 30 min 35° C.; Control = 1.0; pH 7 (ZnCl2 pH 5)
Experimental: (§1) This example illustrates the malodor efficacy of the HMPs of the present invention. Isovaleric acid was chosen as a chemical surrogate for body odor while butylamine was used as a representative for amine-containing odors such as fish, pet urine, etc. Hydrophobic greasy cooking odors were represented by aldehydes such as nonanal. The solutions are first equilibrated at room temperature for 2 hours, then incubated at 35° C. for 30 minutes. The headspace of each vial is finally sampled using a polydimethyl siloxane (PDMS)/Solid-Phase-Micro-Extraction (SPME) fiber and analyzed by GC/MS. The reductions in head space concentrations of odor molecules are measured and the data are normalized to Control. Lower numbers denote […] of malodor molecules present in the solution that are attributed to high malodor control efficacy of polymers.

[3] = Malodor control performance, headspace SPME GC/MS, isovaleric acid; settings: 5 ml test solution spiked with 5 microliters; 2 h room temperature, 30 min 35° C.; Control = 1.0; pH 7 (ZnCl2 pH 5)
Experimental: as §1

[4] = Sulfur odor control performance, headspace SPME GC/MS, butanethiol; settings: 5 ml test solution spiked with 3 ppm; 2 h room temperature, 30 min 35° C.; Control = 1.0
Experimental: (§2) Butanethiol and dipropoyl sulfide were chosen as chemical surrogates for sulfur containing odors such as kitchen (onion/garlic), sewage, etc. These two molecules also enable the assessment of efficacy of polymer for sulfur molecules having different degrees of hydrophobicity (e.g more hydrophobic dipropylsulfide is usually harder to mitigate with hydrophilic technologies such as cyclodextrin). 5 ml test solution was placed in a GC-MS vial and spiked with 3 parts-per-million of butanethiol or dipropylsulfide. The solutions were first equilibrated at room temperature for 2 hours, then incubated at 35° C. for 30 minutes. The headspace of each vial was finally sampled using a PDMS/SPME fiber and analyzed by GC/MS. The reductions in head space concentrations of sulfur molecules were measured and the data were normalized to Control (Table 4).

[5] = Sulfur odor control performance, headspace SPME GC/MS, dipropylsulfide; settings: 5 ml test solution spiked with 3 ppm; 2 h room temperature, 30 min 35° C.; Control = 1.0
Experimental: as §2

[6] = Malodor control performance, headspace SPME GC/MS, nonanal; settings: 5 ml test solution spiked with 5 microliters; 2 h room temperature, 30 min 35° C.; Control = 1.0; pH 7 (ZnCl2 pH 5)
Experimental: as §1

[7] = benchmark values; cited from earlier work

Molecule	Respiratory Byproducts Detection Time [1]	head space concentration of Butylamine (Fish) normalized to Control [2]	head space concentration of Isovaleric Acid (Body) normalized to Control [3]	head space concentration of Butanethiol normalized to Control [4]	head space concentration of Dipropylsulfide normalized to Control [5]	head space concentration of Nonanal (Grease) normalized to Control [6]	ambient temperature water solubility (benchmark) [7]
[Cl-].[Cl-].[Zn+2] [ZnCl2, zinc chloride]	3.38 h	0.0	1.0	0.8	1.0	1.0	
OC[C@H]1O[C@@H]2O[C@H]3[C@H](O)[C@@H](O)[C@@H](O[C@H]4[C@H](O)[C@@H](O)[C@@H](O[C@H]5[C@H](O)[C@@H](O)[C@@H](O[C@H]6[C@H](O)[C@@H](O)[C@@H](O[C@H]7[C@H](O)[C@@H](O)[C@@H](O[C@H]8[C@H](O)[C@@H](O)[C@@H](O[C@H]1[C@H](O)[C@H]2O)O[C@@H]8CO)O[C@@H]7CO)O[C@@H]6CO)O[C@@H]5CO)O[C@@H]4CO)O[C@@H]3CO [beta-cyclodextrin]							1.8 g/100 ml
hydroxypropyl modified beta cyclodextrin							≥ 60 g/100 ml
